In the test the target is Serine/threonine-protein kinase mTOR (Homo sapiens) (UniProt P42345). In words: mTOR FRB domain ligand binding – biophysical, NMR (AID 1648). To be noted: NMR binding to FRB domain, chemical shift.

The source made the active and inactive calls. The rule behind the calls is not given here.

The term Kd denotes the free concentration of one partner at which half of the binding sites on the other are occupied at equilibrium, for simple one-to-one binding.

Sequence of Serine/threonine-protein kinase mTOR (Homo sapiens) (P42345 2015-2114): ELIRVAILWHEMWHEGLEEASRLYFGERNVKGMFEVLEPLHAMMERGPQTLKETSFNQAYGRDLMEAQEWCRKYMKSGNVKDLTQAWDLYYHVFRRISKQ

Regarding `O=C(Nc1ccc2ccccc2c1)c1cnccn1`, the Kd is > 4 mM (inactive).

As to `O=C1c2ccncc2C(=O)N1CO`, the Kd is > 4 mM (inactive).

For `C=CCc1cc(C(=O)N2CCCCC2)ccc1O`, the Kd was > 4 mM (inactive).

Turning to `O=C1C=C(Nc2ccccc2O)c2ccccc2C1=O`, the Kd was > 4 mM (inactive).

For `COc1ccc(CN2CCOCC2)c(C)c1C`, the Kd is > 4 mM (inactive).

Consider `N#Cc1cnc(N2CCCCC2)nc1N`, for which the Kd is > 4 mM (inactive).

As for `Cn1cnc2c(=O)[nH]cc([N+](=O)[O-])c21`, the Kd is > 4 mM (inactive).

`NC(=O)c1ccc(-c2csnn2)cc1`: the Kd was > 4 mM (inactive).

`Nc1nc(CSc2ncn(-c3ccccc3)n2)cs1`: the Kd was > 4 mM (inactive).

Turning to `Cc1cc(C)n(-c2nc(N)cc(=O)[nH]2)n1`, the Kd is > 4 mM (inactive).

For `CC1CCN(C(=O)c2ccc3c(c2)OCCO3)CC1`, the Kd was > 4 mM (inactive).

Regarding `CC(=O)Nc1ccc2c(C)cc(=O)[nH]c2c1`, the Kd is > 4 mM (inactive).

As to `O=C1CCN(c2ccccc2)N1`, the Kd is > 4 mM (inactive).

Consider `O=C(NN1CCOCC1)c1ccccc1F`, for which the Kd is > 4 mM (inactive).

Regarding `COc1ccc([C@@H](C)C(=O)c2ccc(O)cc2O)cc1`, the Kd is > 4 mM (inactive).

Turning to `N=Nc1c(O)[nH]c2ccccc12`, the Kd is > 4 mM (inactive).

Turning to `Nc1ccc2sccc2c1`, the Kd was > 4 mM (inactive).

Regarding `CC1(C)CN=C(Nc2nc3ccccc3s2)S1`, the Kd was > 4 mM (inactive).

As for `Cc1ccc(C(=O)Nn2cnnc2)s1`, the Kd is > 4 mM (inactive).

On to `CCOC(=O)N1CCN(c2ncnc3c2cnn3C)CC1`, for which the Kd was > 4 mM (inactive).

On to `CCOC(=O)C1CCN(c2ncnc3nc[nH]c23)CC1`, for which the Kd was > 4 mM (inactive).

As to `CCOC(=O)c1cc2ccccc2oc1=O`, the Kd is > 4 mM (inactive).

As to `CN(C)c1nc(N2CCOCC2)nc(N2CCOCC2)n1`, the Kd was > 4 mM (inactive).

In the case of `Nc1nnc(SCc2ccc(F)cc2)s1`, the Kd was > 4 mM (inactive).

As to `COc1cc2c(cc1OC)[C@@H]1C(=O)c3ccc4oc(C(C)C)cc4c3O[C@@H]1CO2`, the Kd was > 4 mM (inactive).

In the case of `COc1ccc(-c2oc3c(CC=C(C)C)c(O[C@@H]4O[C@H](CO)[C@@H](O)[C@H](O)[C@H]4O)cc(O)c3c(=O)c2O[C@@H]2O[C@@H](C)[C@H](O)[C@@H](O)[C@H]2O)cc1`, the Kd was > 4 mM (inactive).

Regarding `O=C(NCc1cccs1)c1ccc2c(c1)OCCO2`, the Kd was > 4 mM (inactive).

Take `Cc1nc2sccn2c1C(=O)O`: the Kd was > 4 mM (inactive).

On to `COC1=CC23CCCN2CCc2cc4c(cc2C3C1O)OCO4` (configuration not stated), for which the Kd was > 4 mM (inactive).

On to `COc1cc(C(=S)N2CCC(C(N)=O)CC2)ccc1O`, for which the Kd was > 4 mM (inactive).

`Cc1ccc(NC(=O)C(=O)Nc2ccccn2)cc1`: the Kd is > 4 mM (inactive).

On to `O=c1cnnc(N2CCCCC2)[nH]1`, for which the Kd was > 4 mM (inactive).

On to `O=C(O)c1cccnc1N1CCOCC1`, for which the Kd is > 4 mM (inactive).

With `O=C(O)c1cc2ccccc2cn1`, the Kd is > 4 mM (inactive).

Turning to `Cn1[nH]c(C(F)(F)F)cc1=O`, the Kd is > 4 mM (inactive).

Consider `O=c1cnnc(NCc2ccc(F)cc2)[nH]1`, for which the Kd is > 4 mM (inactive).

`C=CCCCCCCCCCCCC(O)CC(O)CO` (configuration not stated) (tested in a mixture with another compound): the Kd is > 4 mM (inactive).

For the compound `C[C@@H]1CC[C@@]2(OC1)O[C@H]1CC3C4CC[C@H]5C[C@@H](O)CC[C@]5(C)C4CC[C@]3(C)[C@H]1[C@@H]2C` (some centres not stated), the Kd was > 4 mM (inactive).

On to `Cc1nc(CC(=O)O)c(-c2ccccc2)s1`, for which the Kd is > 4 mM (inactive).

As for `O=C(COc1ccccc1O)NCCO`, the Kd was > 4 mM (inactive).

For `O=C(NCc1cccnc1)c1ccccn1`, the Kd is > 4 mM (inactive).

As for `COc1ccc(-c2c(OC)c3c(OC)c4c(cc3oc2=O)OC(C)(C)C=C4)cc1`, the Kd was > 4 mM (inactive).

`CN(C)C(=O)CSc1nc2ccccc2c(=O)[nH]1`: the Kd is > 4 mM (inactive).

Turning to `Nc1cc(N)nc(SCc2ccccc2)n1`, the Kd was > 4 mM (inactive).

For `O=C1c2ccncc2C(=O)N1CNc1ccccn1`, the Kd was > 4 mM (inactive).

`Cn1c(=O)c2c(ncn2CCN)n(C)c1=O`: the Kd was > 4 mM (inactive).

As for `O=C1CCC(C(=O)NCc2ccc(Cl)cc2)N1` (configuration not stated), the Kd was > 4 mM (inactive).

As for `NC(=O)Cn1nc(-c2ccc(F)cc2)ccc1=O`, the Kd is > 4 mM (inactive).

Regarding `O=C1CSC(=NC(=O)c2ccccc2)N1`, the Kd is > 4 mM (inactive).

Consider `NC(=O)C1(c2ccccc2)CCOCC1`, for which the Kd was > 4 mM (inactive).

Regarding `NCC(=O)c1ccccc1`, the Kd is > 4 mM (inactive).

As to `NCc1csc2ccccc12`, the Kd is > 4 mM (inactive).

Regarding `COC(=O)CCC(C)[C@H]1CCC2C3C(C[C@H](O)[C@@]21C)[C@@]1(C)CC[C@@H](O)C[C@H]1C[C@H]3O` (some centres not stated), the Kd was > 4 mM (inactive).

In the case of `NC(=O)Cc1nc2ccccc2[nH]1`, the Kd is > 4 mM (inactive).

As for `O=C(O)c1cccc2c1OCCCO2`, the Kd was > 4 mM (inactive).

In the case of `CCC(C)C(NC)C(=O)O` (configuration not stated), the Kd was > 4 mM (inactive).

Consider `OC(CCl)c1ccc(-n2cncn2)cc1` (configuration not stated), for which the Kd is > 4 mM (inactive).

For the compound `O=C(Nc1ccc(O)cc1)N1CCOCC1`, the Kd is > 4 mM (inactive).

For the compound `Nc1ccncc1`, the Kd was > 4 mM (inactive).

As for `CC(=O)Oc1c(C)cc(O)c2ccccc12`, the Kd was > 4 mM (inactive).

On to `Cc1csc(CCc2nc(C)cs2)n1`, for which the Kd was > 4 mM (inactive).

With `O=C(Nc1cccc2cccnc12)c1cccnc1`, the Kd is > 4 mM (inactive).

Regarding `Cn1cnc2c(cnn2-c2ccccc2)c1=O`, the Kd was > 4 mM (inactive).

As to `COCc1c(CN)cnc(C)c1N`, the Kd was > 4 mM (inactive).

For `O=C(Cc1cccs1)N1CCOCC1`, the Kd was > 4 mM (inactive).

As to `C=C(C)CSc1nc2nc(C)cc(C)n2n1`, the Kd was > 4 mM (inactive).

For `CCOC(=O)C1CCN(Cc2ccccc2)CC1`, the Kd was > 4 mM (inactive).

`COc1cccc2onc(N)c12`: the Kd was > 4 mM (inactive).

Take `OCC12COC3c4ccccc4C(OC1)N32` (configuration not stated): the Kd is > 4 mM (inactive).

`O=C(O)CCN1CCc2ccccc2C1c1ccncc1` (configuration not stated): the Kd was > 4 mM (inactive).

As for `CC(=O)O[C@H]1CC[C@@]2(C)C(=CC(=O)C3C4CCC(C(C)CCCC(C)C)[C@@]4(C)CCC32)C1` (some centres not stated), the Kd was > 4 mM (inactive).

Turning to `Nc1ccc(CN2CCS(=O)(=O)CC2)cc1`, the Kd is > 4 mM (inactive).

For `O=C(O)c1ccc(N2CCOCC2)cc1`, the Kd is > 4 mM (inactive).

Regarding `C[C@]12CC(=O)C3C(CC[C@@H]4C[C@H](O)CC[C@]34C)C1CC[C@]2(O)C(=O)CO` (some centres not stated), the Kd is > 4 mM (inactive).

Regarding `COC(=O)c1ccc2nccnc2c1`, the Kd was > 4 mM (inactive).

Regarding `NC(=O)C1CCN(C(=S)Nc2ccccc2)CC1`, the Kd was > 4 mM (inactive).

Regarding `O=C(NCc1ccco1)c1nc2ncccn2n1`, the Kd is > 4 mM (inactive).

Turning to `CCOC(=O)c1cc(C)n(-n2cnnc2)c1C`, the Kd was > 4 mM (inactive).

In the case of `CCN1CCN(c2ncnc3c2nnn3C)CC1`, the Kd was > 4 mM (inactive).

In the case of `S=C(NCc1ccco1)NN1CCOCC1`, the Kd was > 4 mM (inactive).

`Cc1ccc(/C=C2/NC(=S)NC2=O)s1`: the Kd is > 4 mM (inactive).

On to `O=C(O)c1csc2ccccc12`, for which the Kd was > 4 mM (inactive).

`CC(O)C(=O)N/N=C/c1cccs1` (configuration not stated): the Kd is > 4 mM (inactive).

For the compound `Cc1nc(SCC#N)c2c(C)c(C)sc2n1`, the Kd was > 4 mM (inactive).

For the compound `NCc1ccc(S(=O)(=O)O)cc1`, the Kd is > 4 mM (inactive).

With `O=C(O)c1ccc2nccnc2c1`, the Kd was > 4 mM (inactive).

Regarding `COc1ccc2cc1Oc1ccc(cc1)C[C@H]1c3c(cc4c(c3Oc3cc5c(cc3OC)CCN(C)[C@@H]5C2)OCO4)CCN1C`, the Kd is > 4 mM (inactive).

Take `C1CCN2C[C@@H]3C[C@H](CN4CCCC[C@@H]34)[C@H]2C1`: the Kd was > 4 mM (inactive).

For the compound `Nc1nc2ncc(CNc3ccc(C(=O)N[C@@H](CCC(=O)O)C(=O)O)cc3)nc2c(=O)[nH]1`, the Kd was > 4 mM (inactive).

As to `CC(C)=CCc1c2c(c(O)c3c(=O)c(O)c(-c4ccccc4)oc13)C=CC(C)(C)O2`, the Kd is > 4 mM (inactive).

On to `CC(=O)NC1(NC(C)=O)CCN(C)CC1`, for which the Kd was > 4 mM (inactive).

Take `COC(=O)C[C@@H]1C2(C)C(=O)[C@@H](CC3C2CC[C@]2(C)C3CC(=O)O[C@H]2c2ccoc2)[C@H](OC(C)=O)C1(C)C` (some centres not stated): the Kd is > 4 mM (inactive).

For `Cc1cc(O)cc(O)c1C(=O)O`, the Kd was > 4 mM (inactive).

Regarding `Cn1nnc2cc(C(=O)NC3CCCCC3)ccc21`, the Kd was > 4 mM (inactive).

On to `NC(=S)N1CCC(c2ccccc2)=N1`, for which the Kd was > 4 mM (inactive).

In the case of `COC(=O)Cc1cc(=O)n(-c2nc3ccccc3s2)[nH]1`, the Kd is > 4 mM (inactive).

On to `NC(=O)CC(=O)NC12CC3CC(CC(C3)C1)C2`, for which the Kd was > 4 mM (inactive).

Turning to `Cn1c(SCC(N)=O)nnc1-c1c[nH]c2ccccc12`, the Kd is > 4 mM (inactive).

Turning to `NS(=O)(=O)c1ccc(NC(=O)C2CC2)cc1`, the Kd is > 4 mM (inactive).

`CN1CN(Cc2ccccc2)CN/C1=N/[N+](=O)[O-]`: the Kd is > 4 mM (inactive).

For the compound `C=CC1=C(C)/C(=C/c2[nH]c(Cc3[nH]c(/C=C4\NC(=O)C(C)=C4C=C)c(C)c3CCC(=O)O)c(CCC(=O)O)c2C)NC1=O`, the Kd was > 4 mM (inactive).

With `CC1SC(=NC(=O)c2ccncc2)NC1=O` (configuration not stated), the Kd is > 4 mM (inactive).
